Earlier results as cited in US9655905B2, “Treatment of sickle cell disease” (KING ABDULLAH UNIVERSITY OF SCIENCE AND TECHNOLOGY, priority 2011, dated 2017).

Assays:
ET-3 = test system: ET-3; design: key to Effect on ET-3: increases protein levels; decrease: reduces protein levels; exert no effect on protein levels; not known: has not been experimentally determined
SELE = conditions: for Effect on SELE: Table 6, adhesion, up in SCD
SELP = conditions: for Effect on SELP: Table 6, adhesion, up in SCD
CD36 = test system: CD36; design: key to Effect on CD36: increases protein levels; decrease: reduces protein levels; exert no effect on protein levels; not known: has not been experimentally determined
NFkB = conditions: for Effect on NFkB: Table 6, activator of endothelial cells, up in SCD
ICAM-1 = conditions: for Effect on ICAM-1: Table 6, adhesion, up in SCD
eNOS = conditions: for Effect on eNOS: Table 6, inhibitor of endothelial cell activation, down in SCD
[1] = test system: erythrocyte-endothelial adhesion; conditions: HU therapy (Gambero, et al 2007)
IL-6 = conditions: for Effect on IL-6: Table 6, chemokine/inflammatory, up in SCD
IL-3 = test system: IL-3; design: key: increases protein levels; decrease: reduces protein levels; exert no effect on protein levels; not known: has not been experimentally determined; conditions: Table 6; inflammatory, up in SCD
IL-8 = test system: IL-8; design: key to Effect on IL-8: increases protein levels; decrease: reduces protein levels; exert no effect on protein levels; not known: has not been experimentally determined
VCAM-1 = test system: VCAM-1; design: key to Effect on VCAM-1: increases protein levels; decrease: reduces protein levels; exert no effect on protein levels; not known: has not been experimentally determined
fetal hemoglobin (HbF) = conditions: via NO-cGMP signaling pathway (Cokic, et al 2003)
IL-1β = conditions: for Effect on IL-1β: Table 6, cytokine/inflammatory, up in SCD
GM-CSF = test system: GM-CSF; design: key to Effect on GM-CSF: increases protein levels; decrease: reduces protein levels; exert no effect on protein levels; not known: has not been experimentally determined
IL-10 = conditions: for Effect on IL-10: Table 6, anti-inflammatory; for levels of anti-inflammatory mediator IL-10: cited literature
TNFα = conditions: for Effect on TNFα: Table 6, cytokine/inflammatory, up in SCD; for levels of TNF-α: cited literature
ET-1 = conditions: for Effect on ET-1: Table 6, vasoconstrictor, up in SCD; for levels of vasoconstrictor ET-1: cited literature
FN1 = conditions: for Effect on FN1: Table 6, coagulatory, up in SCD
NO = conditions: for Effect on NO: Table 6, vasodilator, down in SCD
VLA-4 = test system: VLA-4; design: key to Effect on VLA-4: increases protein levels; decrease: reduces protein levels; exert no effect on protein levels; not known: has not been experimentally determined
[2] = test system: leukocyte-endothelial adhesion; conditions: colonic UR injury (Santen, et al 2010)
cGMP = conditions: Dai, et al 2011
[3] = test system: (G) gamma-globin promoter
[4] = HU in SCD, endothelial adhesion molecule
[5] = on the surface of erythrocytes, HU therapy
[6] = Table 6, activator of endothelial cells, up in SCD
[7] = colonic UR injury (Santen, et al 2010)

## NC(=O)NO [HU, Hydroxyurea]
ET-3; HU in SCD (Makis, et al 2004)
  levels of vasoconstrictor ET-3: decreasing
ET-3; Table 6, vasoconstrictor, up in SCD
  Effect on ET-3: decrease
SELE; [4]
  levels of sSELE: decreasing
SELE
  Effect on SELE: decrease
SELP; [4]
  levels of sSELP: decreasing
SELP
  Effect on SELP: decrease
CD36; Table 6, adhesion, up in SCD
  Effect on CD36: decrease
CD36; [5]
  gene and protein expression of CD36: reducing
NFkB
  Effect on NFkB: decrease
ICAM-1; [4]
  levels of sICAM-1: decreasing
ICAM-1
  Effect on ICAM-1: decrease
eNOS
  Effect on eNOS: increase
[1]
  erythrocyte-endothelial adhesion: reduce
IL-6; HU (Laurance, et al 2010)
  expression of IL-6: increases
IL-6
  Effect on IL-6: increase
IL-3
  Effect on IL-3: increase
IL-8; HU (Laurance, et al 2010)
  expression of IL-8: increases
IL-8; HU therapy (Lanaro, et al 2009)
  levels of IL-8: no effect
IL-8; Table 6, chemokine/inflammatory, up in SCD
  Effect on IL-8: increase
VCAM-1; [4]
  levels of sVCAM-1: decreasing
VCAM-1; Table 6, adhesion, up in SCD
  Effect on VCAM-1: decrease
Fetal hemoglobin (HbF)
  production of fetal hemoglobin (HbF)-containing erythrocytes: increasing
IL-1β
  Effect on IL-1β: increase
GM-CSF; HU therapy (Conran, et al 2007)
  levels of GM-CSF: decreased
GM-CSF; Table 6, inflammatory, up in SCD
  Effect on GM-CSF: decrease
IL-10
  Effect on IL-10: increase
  levels of anti-inflammatory mediator IL-10: increase
TNFα
  Effect on TNFα: decrease
  levels of TNF-α: decreased
ET-1
  Effect on ET-1: decrease
  levels of vasoconstrictor ET-1: decreasing
FN1; HU (Saleh, et al 1999)
  levels of the pro-coagulatory molecule fibronectin: no demonstrable effects
FN1
  Effect on FN1: no effect
NO; HU treatment of SCD (Conran, et al 2004)
  NO bioavailability: increased
NO
  Effect on NO: increase
VLA-4; Table 6, adhesion, up in SCD
  Effect on VLA-4: decrease
VLA-4; [5]
  gene and protein expression of VLA-4: reducing

## O=S(=O)(c1cccc2c(O)nccc12)N1CCCNCC1 [Hydroxyfasudil, 5-(1,4-diazepane-1-sulfonyl)isoquinolin-1-ol]
ROS; Table 6, IR injury-related molecule, up in SCD
  Effect on ROS: decrease
ROS; UR injury (Shiotani, et al 2004)
  injury-induced generation of ROS: suppress
TF; Satoh, et al 2010
  TF: reduce
TF; [6]
  Effect on TF: decrease
SELE
  Effect on SELE: decrease
SELE; [7]
  SELE: reduce
SELP
  Effect on SELP: decrease
SELP; [7]
  SELP: reduce
NFkB; He, et al 2008
  NFκB: reduce
NFkB
  Effect on NFkB: decrease
ICAM-1
  Effect on ICAM-1: decrease
ICAM-1; [7]
  ICAM-1: reduce
ICAM-1; diabetes-induced microvascular damage (Arita, et al 2009)
  ICAM-1 expression: reduce
eNOS; Dai, et al 2011
  levels of eNOS: increased
eNOS
  Effect on eNOS: increase
IL-6
  Effect on IL-6: decrease
IL-6; after hypoxia/reoxygenation injury in brain tissue (Ding, et al 2010)
  IL-6 levels: reduce
IL-1β; He, et al 2008
  IL-1β: decrease
IL-1β
  Effect on IL-1β: decrease
[2]
  leukocyte-endothelial adhesion: diminishing
IL-10
  Effect on IL-10: increase
  levels of anti-inflammatory mediator IL-10: increase
TNFα
  Effect on TNFα: decrease
  levels of TNF-α: decrease
cGMP
  levels of cGMP: increased
ET-1
  Effect on ET-1: decrease
  levels of vasoconstrictor ET-1: suppress
FN1
  Effect on FN1: decrease
HIF-1; [6]
  Effect on HIF-1: decrease
HIF-1; Takata, et al 2008
  HIF-1α: reduce
NO; Dai, et al 2011
  levels of NO: increased
NO
  Effect on NO: increase

## C=C1CC[C@H]2C(C)(C)CCC[C@]2(C)[C@H]1C/C=C1/C(=O)OC[C@@H]1O [Isocoronarin D]
[3]
  production of HbF: induces
[3]; rank among seven diterpenes (Chokchaisiri, et al 2010)
  EGFP inducing potency or HbF production: highest
K562 reporter cell line
  cell viability: 75-80%
  toxicity associated with HbF induction: little to no
